Test results published in patent publication US12569468B2, “Use of palovarotene in treatment against HBV virus” (YANG SHENG TANG COMPANY, LTD., priority 2020, dated 2026).

Tested on: HBV
Assay: Therapeutic effect on HepG2-hNTCP 2B1 infected by HBV (drug from day 6 after infection)
Assay type: cell-based, hepatitis B virus
Conditions: drug treatment from 6 days after HBV infection to day 12, Palovarotene at high concentrations (p<0.05), ETV 1 μM, vs blank group
Description: This experiment was carried out in a 24-well culture plate. […] About 1.5×10^5 HepG2-hNTCP 2B1 cells were plated in each well, and 500 μL of medium B was added to each well. After the cells adhered, medium A was used for replacement to perform the induction with Doxycycline during the whole experiment.
4 Days after the induction with Doxycycline, HBV infection was performed, and the amount of HBV in each well was 100 MOI. Before infection, HBV was diluted in medium C to obtain HBV solution, and the infection volume was 250 μL per well. During infection, the cell supernatant was first removed by suction, the HBV solution was added to the cells, and the cells were incubated for 24 hours, then the supernatant was collected as the sample of Day 0. Then the cells were washed three times with PBS, and fresh medium C was used for replacement. After that, the supernatant was collected every two days for detection, fresh medium C was used for replacement. On the 6th day, fresh drug-containing medium A was used for replacement to start drug treatment, then the supernatant was collected every two days for detection, and fresh drug-containing medium A was used for replacement, until the 12th day, all the supernatant and cells were collected for relevant detection. The detection items included HBsAg, HBeAg, HBV DNA, HBV cccDNA, and for the detection method, please refer to Example 1.

C=C1[C@H](CO)[C@@H](O)C[C@@H]1n1cnc2c(=O)[nH]c(N)nc21 [ETV, Entecavir]
no significant difference: HBeAg | level of HBV DNA | level of HBV cccDNA
